Measurements reported in patent US4757068A, “Lactams and bicyclic lactams useful as cholecystokinin antagonists” (Merck & Co., Inc., priority 1985, dated 1988).

Key:
CCK receptor [1] = experiment: 125I-CCK-33 receptor binding (pancreas or brain; tissue not stated); details: 125I-CCK-33; tissue (rat pancreas or guinea pig brain) not stated; read-out: inhibition of specific 125I-CCK-33 binding, IC50
Experimental: (§1) CCK-33 was radiolabeled with ^125 I-Bolton Hunter reagent (2000 Ci/mmole) as described by Sankara et al. (J. Biol. Chem. 254: 9349-9351, 1979). Receptor binding was performed according to Innis and Snyder (Proc. Natl. Acad. Sci. 77: 6917-6921, 1980) with the minor modification of adding the additional protease inhibitors, phenylmethane sulfonyl fluoride and o-phenanthroline.
(§2) Male Sprague-Dawley rats (200-350g) were sacrificed by decapitation. The whole pancreas was dissected free of fat tissue and was homogenized in 20 volumes of ice-cold 50 mM, Tris HCl (pH 7.7 at 25° C.) with a Brinkmann Polytron PT 10. The homogenates were centrifuged at 48,000 g for 10 min. Pellets were resuspended in Tris Buffer, centrifuged as above and resuspended in 200 volumes of binding assay buffer (50 mM Tris HCl, pH 7.7 at 25° C., 5 mM dithriothriethel, 0.1 mM bacitracin, 1.2 mM phenylmethane sulfonyl fluoride, and 0.5 mM phenathroline). […] All assays were run in duplicate or triplicate. The reaction mixtures were incubated at 37° C. for 30 minutes and centrifuged in a Beckman Microfuge (4 minutes) immediately after adding 1 ml of ice-cold incubation buffer. The supernatant was aspirated and discarded, pellets were counted with a Beckman gamma 5000.
(§3) CCK-33 was radiolabeled and the binding was performed according to the description for the pancreas method with modifications according to Saito et al. (J. Neurochem., 37, 483-490 (1981)).
(§4) Male Hartley guinea pigs (300-500g) were sacrificed by decapitation and the brains were removed and placed in ice-cold 50 mM, Tris HCl plus 7.58 g/l Tritma-7.4 (pH 7.4 at 25° C.) Cerebral cortex was dissected and used as a receptor source. Each gram of fresh guinea pig brain tissue was homogenized in 10 ml of Tris/Trizma buffer with a Brinkman polytron PT-10. The homogenates were centrifuged at 42,000 g for 15 min. Pellets were resuspended in Tris Buffer, centrifuged as above and resuspended in 200 volumes of binding assay buffer (10 mM HEPES, pH 7.7 at 25° C., 5 mM MgCl2, 1 mM EGTA, 0.4% BSA (bovine serum albumin), and 0.25 mg/ml bacitracin). […] All assays were run in duplicate or triplicate. The reaction mixtures were incubated at 25° C. for 2 hours and centrifuged in a Beckman Microfuge (4 minutes) immediately after adding 1 ml of ice-cold incubation buffer. The supernatant was aspirated and discarded, pellets were counted with a Beckman gamma 5000.

CCK receptor [2] = details: various members of the cyclic nucleotide class, literature; cited from earlier work
CCK receptor [3] = molecular target: T1, CCK receptor (Rattus norvegicus, UniProt P30551); experiment: 125I-CCK-33 receptor binding (pancreas or brain; tissue not stated); details: added protease inhibitors in binding buffer
T1 construct: from tissue
T1 sequence (P30551 1-444): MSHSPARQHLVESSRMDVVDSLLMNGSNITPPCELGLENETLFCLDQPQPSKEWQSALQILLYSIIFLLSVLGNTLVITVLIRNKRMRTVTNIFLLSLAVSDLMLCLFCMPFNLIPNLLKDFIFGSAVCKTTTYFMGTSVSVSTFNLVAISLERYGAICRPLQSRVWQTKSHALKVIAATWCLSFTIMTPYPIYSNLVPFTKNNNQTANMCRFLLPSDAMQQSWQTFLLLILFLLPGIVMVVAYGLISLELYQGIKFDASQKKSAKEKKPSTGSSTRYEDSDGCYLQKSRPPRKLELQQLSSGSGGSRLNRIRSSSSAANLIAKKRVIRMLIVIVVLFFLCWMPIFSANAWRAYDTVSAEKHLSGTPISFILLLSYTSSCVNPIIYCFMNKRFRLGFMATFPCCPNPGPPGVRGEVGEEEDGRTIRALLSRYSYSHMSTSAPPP
Experimental: as §1, §2, §3, §4

Structure (SMILES) | IC50 (CCK receptor [1]) | effect on the 125I-CCK receptor binding assay (CCK receptor [3]) | also measured
CCOC(=O)C(CCc1ccccc1)NC1CCCC(c2ccccc2)N(CC(=O)OC)C1=O (single isomer, unassigned) [1-Carbomethoxymethyl-3-(1-carbethoxy-3-phenylpropyl)amino-7-phenylperhydroazepin-2-one] | 32 µM | – | –
COC(=O)CN1C(=O)C(C)(NC(CCc2ccccc2)C(=O)OC)CCc2ccccc21 (centres unmarked) [1-Carbomethoxymethyl-3-(1-carbomethoxy-3-phenylpropyl)amino-3-methyl homodihydrocarbostyril] | 72 µM | – | –
CCCC(=O)Nc1nc2c(ncn2[C@@H]2O[C@@H]3COP(=O)(O)O[C@H]3[C@H]2OC(=O)CCC)c(=O)[nH]1 [dibutyryl cyclic GMP] | – | – | potency rank among cyclic nucleotide CCK antagonists (CCK receptor [2]): most potent
c1cnc2c(c1)ccc1cccnc12 [o-phenanthroline] | – | no effect | –
O=S(=O)(F)Cc1ccccc1 [phenylmethane sulfonyl fluoride] | – | no effect | –
